Key:
Type in all cases: cell-based, human
[1] = test system: foam cell formation on the VSA; assay: VSA foam cell assay (BODIPY staining); conditions: for foam cell generation (BODIPY): day 10, vs. control; for foam cell formation (BODIPY): day 10, vs. control 100%
Protocol: Experimental: (1) Fabrication of large-scale VSA high throughput culture systems: Individual VSAs were fabricated in each well of a 48-well tissue culture plate, following the method described in Example 4 (FIG. 7A, step 1), to create a high throughput culture system for testing drug effects on atherosclerosis. (2) The VSAs were divided into two groups: treated and untreated. (3) The treated group was treated with rosuvastatin (10 uM) or sirolimus (10 nM) by dilution of the stock solution into the “culture medium 7” on day 0 (FIG. 7B, step 2). (4) The VSAs, both treated and untreated, were co-cultured for 10 days with a fresh culture medium 7 with monocytes added on day 3 and day 7, respectively. (5) BODIPY staining was used to quantify foam cell formation: On day 10, a 10 mM BODIPY stock solution was prepared by dissolving in DMSO and stored at −20° C. Before the experiment, a 100 times diluted working solution was prepared from the stock solution using PBS. The VSAs were gently washed with PBS, then BODIPY was added, incubated in the dark for 30 min, imaged immediately using a microscope, and quantified at ex/em 485 nm/520 nm.
Experimental: (1) Fabrication of VSA high throughput culture systems: the large-scale VSA high throughput culture system was achieved by fabricating individual VSAs in each well of the 48-well tissue culture plate, following the same method described in Example 4 (FIG. 7A, step 1). (2) Divide the VSAs into two groups. (3) Treatment of VSAs in one group with curcumin (200 uM) or colchicine (100 nM) by dilution of the stock solution into the “culture medium 7” containing monocytes on day 0 (FIG. 7B, step 2). (4) The VSAs, treated or untreated, were co-cultured for 10 days. A fresh culture medium 7 was added to the co-culture system on day 3 and day 7, respectively. (5) BODIPY staining: On day 10, 10 mM BODIPY stock solution was prepared by dissolving in DMSO and stored at −20° C. Before the experiment, 100 times diluted working solution was prepared from stock solution using PBS. Then, the VSAs treated or untreated with curcumin (200 uM), and colchicine (100 nM) were gently washed with PBS, then BODIPY was added and incubated in the dark.
Experimental: (1) Fabrication of VSA high throughput culture systems: the large-scale VSA high throughput culture system was achieved by fabricating individual VSAs in each well of the 48-well tissue culture plate, following the same method described in Example 4 (FIG. 7A, step 1). (2) Divide the VSAs into two groups. (3) Treatment of VSAs in one group with free miR-146a (600 nM) by dilution of the stock solution into the culture medium 7 on day 0 (FIG. 7B, step 2). (4) The VSAs, treated or untreated, were co-cultured for 10 days. […]

[2] = test system: atherosclerosis-related gene expression of VSAs; assay: VSA gene assay (qRT-PCR)
Protocol: Experimental: To create a large-scale VSA high throughput culture system, individual VSAs were fabricated in each well of a 48-well tissue culture plate using the method described in Example 4 (FIG. 7A, step 1). The VSAs were then divided into two groups. One group was treated with rosuvastatin (10 uM) and sirolimus (10 nM) by diluting the stock solution into the “culture medium 7” containing monocytes on day 0 (FIG. 7B, step 2). The treated and untreated VSAs were co-cultured for 10 days with fresh culture medium 7 with monocytes added on day 3 and day 7, respectively. On day 10, RNA was extracted using the TRIzol™ reagent (Invitrogen) and purified using the Direct-Zol™ RNA Miniprep Plus kit following the protocol (Zymo Research). EDTA was added before phase separation to bind the calcium and help disintegrate the nanomatrix VSAs. The upper transparent aqueous phase was collected and RNA was suspended in nuclease-free water. The concentration and purity of RNA for each sample were determined using an ND-1000 UV spectrophotometer (Nanodrop). Complementary DNA was synthesized using 50 ng of RNA and reverse transcribed in a 2720 Thermo Cycler (Applied Biosystems) using a Verso cDNA Synthesis Kit (Thermo Fisher) according to the manufacturer's protocol. Samples were prepared in a 96-well PCR plate using the TaqMan Master Mix protocol. Each sample consisted of 2 μL of cDNA solution, 10 μL of 2× master mix, 7 μL of RNA-free water, and 1 μL of gene primer from a TaqMan Gene Expression Assay kit (Applied Biosytems). The PCR plate was run in a LightCycler 480 (Roche Life Science) for the following cycles: pre-incubation at 50° C. for 2 minutes and 95° C. for 10 min; amplification for 45 cycles, at 95° C. for 15 seconds, and 60° C. for 1 minute during each cycle; melting at 95° C. for 5 seconds and 65° C. for 1 minute, and cooling at 40° C. for 30 seconds.
Experimental: (1) Fabrication of VSA high throughput culture systems: the large-scale VSA high throughput culture system was achieved by fabricating individual VSAs in each well of the 48-well tissue culture plate, following the same method described in Example 4 (FIG. 7A, step 1). (2) Divide the VSAs into two groups. (3) Treatment of VSAs in one group with curcumin (200 uM) or colchicine (100 nM) by dilution of the stock solution into the “culture medium 7” containing monocytes on day 0 (FIG. 7B, step 2). (4) The VSAs, treated or untreated, were co-cultured for 10 days. A fresh culture medium 7 with monocytes was added to the co-culture system on day 3 and day 7, respectively. (5) RNA extraction and real-time qRT-PCR: On day 10, before phase separation, EDTA (Ethylenediaminetetraacetic acid) was added to bind the calcium and help disintegrate the nanomatrix VSAs. For phase separation, TRIzol™ reagent was added to the samples (>9 times of the sample volume) and incubated for 5 min. Then chloroform was added, mixed by shaking, and centrifuged (11,600 g, 15 min, 4° C.) to obtain phase separation. The upper transparent aqueous phase was collected and purified using the Direct-Zol™ RNA Miniprep Plus kit following the protocol. RNA was suspended in nuclease-free water, and an ND-1000 UV spectrophotometer was used to quantify the concentration and purity of RNA for each sample. Complementary DNA was then synthesized using 50 ng of RNA, which was reverse transcribed in a 2720 Thermo Cycler (Applied Biosystems) using a Verso cDNA Synthesis Kit according to the manufacturer's protocol. Samples were prepared in a 96-well PCR plate using the TaqMan Master Mix protocol. Each sample consisted of 2 μL of cDNA solution, 10 μL of 2× master mix, 7 μL of RNA-free water, and 1 μL of gene primer from a TaqMan Gene Expression Assay kit. […]

[3] = test system: cytokine secretion of VSAs; assay: VSA cytokine assay (ELISA of supernatant)
Protocol: (§1) Experimental: (1) Fabrication of VSA high throughput culture systems: large-scale VSA high throughput culture systems were achieved by fabricating individual VSAs in each well of the 48-well tissue culture plate, following the same method described in Example 4 (FIG. 7A, step 1). (2) Divide the VSAs into two groups. (3) Treatment of VSAs in one group with rosuvastatin (10 uM) or sirolimus (10 nM) by dilution of the stock solution into the culture medium 7 on day 0 (FIG. 7B, step 2). (4) The VSAs, treated or untreated, were culturing in culture medium 7 for 10 days. A fresh culture medium 7 was added to the co-culture system on day 3 and day 7, respectively. (5) ELISA: On day 10, the supernatant from VSAs was collected for ELISA to measure the significant inflammatory cytokine secretion.
as §1, with “systems: the” for “systems:”, “system was” for “systems were”, “curcumin (200” for “rosuvastatin (10”, “colchicine (100” for “sirolimus (10”, “cultured using” for “culturing in”, “measure” for “measure the significant”
as §1, with “systems: the” for “systems:”, “system was” for “systems were”, “free miR-146a (600 nM)” for “rosuvastatin (10 uM)”, “Lip-miR-146a (600” for “sirolimus (10”, “co-cultured” for “culturing in culture medium 7”, “Afresh” for “A fresh”

[4] = test system: cytokine secretion of VSAs; assay: VSA cytokine assay (ELISA of supernatant); remark: listed apart in the source
[5] = colchicine 100 nM, day 10, vs. control
[6] = curcumin 200 uM, day 10, vs. control
[7] = sirolimus 10 nM, day 10, of the control group
[8] = sirolimus 10 nM, day 10, relative to the control
[9] = rosuvastatin 10 uM, day 10, compared to the control
[10] = rosuvastatin 10 uM, day 10, vs. control

SMILES: COc1cc2c(c(OC)c1OC)-c1ccc(OC)c(=O)cc1[C@@H](NC(C)=O)CC2 [colchicine]
- foam cell generation (BODIPY) ([1]; colchicine 100 nM): 50.86±4.57%
- COL3A1 gene expression [2, 5]: 8.93±1.30%
- MMP-2 gene expression [2, 5]: 6.36±1.44%
- PECAM-1 gene expression [2, 5]: 3.35±0.68 fold
- IL-1α production ([3]; colchicine 100 nM, day 10): 71.31±5.84%
- IL-4 production [3, 5]: 1.39±0.14 fold
- IL-8 production [3, 5]: 42.57±1.80%
- IFN-γ production [4, 5]: 61.95±7.79%
- MCP-1 production [4, 5]: 26.31±1.77%
- TNF-α production [4, 5]: 53.16±7.92%

SMILES: COc1cc(/C=C/C(=O)CC(=O)/C=C/c2ccc(O)c(OC)c2)ccc1O [curcumin]
- foam cell generation (BODIPY) ([1]; curcumin 200 uM): 31.23±5.68%
- MMP-2 gene expression [2, 6]: 39.22±7.14%
- PECAM-1 gene expression [2, 6]: 29.71±5.68%
- VEGF-A gene expression [2, 6]: 38.01±5.68%
- IL-1α production [3, 6]: 80.58±4.91%
- IL-10 production [3, 6]: 2.10±0.29 fold
- IL-8 production [4, 6]: 40.90±5.72%
- MCP-1 production [4, 6]: 76.87±3.35%

SMILES: CO[C@H]1C[C@@H]2CC[C@@H](C)[C@@](O)(O2)C(=O)C(=O)N2CCCC[C@H]2C(=O)O[C@H]([C@H](C)C[C@@H]2CC[C@@H](O)[C@H](OC)C2)CC(=O)[C@H](C)/C=C(\C)[C@@H](O)[C@@H](OC)C(=O)[C@H](C)C[C@H](C)/C=C/C=C/C=C/1C [sirolimus]
- foam cell formation (BODIPY) ([1]; sirolimus 10 nM): 42.73±10.62%
- IFN-γ production [4, 7]: 43.64±17.04%
- MCP-1 production [4, 7]: 22.76±2.56%
- TNF-α production [4, 7]: 40.67±6.42%
- IL-4 secretion [4, 8]: 6.42±3.59 fold
- IL-13 secretion [4, 8]: 1.67±0.59 fold

SMILES: CC(C)c1nc(N(C)S(C)(=O)=O)nc(-c2ccc(F)cc2)c1/C=C/[C@@H](O)C[C@@H](O)CC(=O)O [rosuvastatin]
- foam cell formation (BODIPY) ([1]; rosuvastatin 10 uM): 50.77±8.32%
- MMP-2 gene expression [2, 9]: 4.46±1.75%
- VEGF-A gene expression [2, 9]: significantly lower
- IL-6 gene expression ([2]; rosuvastatin 10 uM, day 10, of control): 5.20±0.38%
- COL17A1 gene expression [2, 10]: 127.03±35.49 fold
- PECAM-1 gene expression [2, 10]: 146.76±44.63 fold
- IFN-γ production [3, 10]: 44.03±3.20%
- IL-1α production [3, 10]: 66.78±6.52%
- IL-6 production [3, 10]: 71.50±4.34%
- TNF-α production [3, 10]: 39.69±5.53%
- IL-10 secretion ([4]; rosuvastatin 10 uM, day 10, compared with the control): 2.10±0.50 fold
- IL-8 production [4, 10]: 48.64±6.17%

— patent US20250115874A1, “Compositions And Methods For Making And Using Atherosclerotic Nanomatrix Vascular Sheets” (UAB RESEARCH FOUNDATION, priority 2023, published 2025)
